System: hypertensive subjects
Assay: Seated automated office blood pressure (AOBP) in randomized, placebo-controlled, dose-ranging study
Type: in vivo, human
Settings: Part 1
Protocol: A randomized, double-blinded, placebo-controlled, dose-ranging, multicenter study was conducted to evaluate the effect of orally administered Compound A HBr on blood pressure for the treatment of hypertension in male and female subjects ≥18 years of age.
The study consists of two parts. For enrollment into Part 1 of the study, a subject's value of plasma renin activity (PRA) must be ≤1 ng/mL/h based on morning measurement. If the value of PRA >1 ng/mL/h based on morning measurement, then subjects may be eligible to enter Part 2 of the study.
For Part 1, 163 enrolled subjects ≥18 years of age were randomized into 6 equal treatment groups (1:1:1:1:1:1) to 12.5 mg BID, 25 mg BID, 12.5 mg QD, 50 mg QD, 100 mg QD, or placebo. After a review of interim clinical data, the 2 lowest dose levels (12.5 mg QD and 12.5 mg BID) were stopped for future randomization due to a lack of consistent meaningful reduction of blood pressure, but the patients randomized to that point remained in the study through completion. Thus, after the review of interim clinical data, subjects were randomized into 4 equal treatment groups (1:1:1:1) to 25 mg BID, 50 mg QD, 100 mg QD, or placebo.
For Part 2, 36 enrolled subjects ≥18 years of age were randomized (5:1) to either 100 mg QD Compound A HBr or placebo such that the Compound A HBr treatment group consisted of approximately 30 subjects and the placebo treatment group will consist of approximately 6 subjects.
Subjects orally administered the assigned study drug (Compound A HBr or placebo) according to the assigned dosing regimen for 8 weeks beginning on Study Day 1. All subjects in Part 1 (regardless of dosing group) received BID dosing to preserve the integrity of the blind; active drug is administered as the morning dose for all QD dose groups. Subjects returned to the research facility or were seen by the clinical investigator or approved home health care professional at the end of Study Weeks 1, 2, 3, 4, 5, 6, 7, and 8 (±2 days) for protocol-defined efficacy and safety assessments and procedures, assessment of adverse events (AEs), and confirmation of compliance with study drug usage. Subjects also completed a telephone visit and blood pressure (BP) check at home approximately 3 days post last dose of study drug. Subjects attended up to 14 full clinic visits, including a pre-Screening visit, a Screening/start of Placebo Run-in visit, a second visit during Placebo Run-in, a clinic visit to initiate the ABPM procedure, a Randomization visit, 8 weekly visits during double-blind treatment, and an end-of-study visit scheduled 4 weeks after the last study treatment for final efficacy and safety assessments.
An automated oscillometric sphygmomanometer device was used to measure the subjects' systolic and diastolic blood pressure in office after approximately 5 minutes of rest in the seated position.
The primary endpoint is the change in office-measured (mean of last 2 of 5 unattended measurements using an automated oscillometric sphygmomanometer device after approximately 5 minutes of rest in the seated position) systolic blood pressure (SBP) from baseline to the end of Study Week 8.
Secondary endpoints of this study were: • (a) Change in 24-hour ambulatory blood pressure monitoring (ABPM) parameters (systolic and diastolic) from baseline to the end of Study Week 7. • (b) Change in office-measured SBP from baseline to the end of Study Weeks 1, 2, 3, 4, 5, 6, and 7. • (c) Change in office-measured diastolic blood pressure (DBP) from baseline to the end of Study Weeks 1, 2, 3, 4, 5, 6, 7, and 8. • (d) Proportion of subjects who achieve office-measured BP of ≤130/80 mm Hg by the end of Study Week 8.

[1] = 50 mg QD, Systolic Blood Pressure Tertile at Baseline High
[2] = 50 mg QD, Systolic Blood Pressure Tertile at Baseline Low
[3] = 50 mg QD, Systolic Blood Pressure Tertile at Baseline Middle
[4] = 50 mg QD, Thiazide Diuretic Use at Baseline No
[5] = 50 mg QD, Thiazide Diuretic Use at Baseline Yes

CC(=O)N[C@H]1CC[C@H](NC(=O)CN2CCN(c3nncc(-c4ccc(C)cc4)n3)CC2)CC1 [Compound A HBr]
Mean (SD) Change from Baseline at Week 8 in Automated Office-Measured Diastolic Blood Pressure (50 mg QD, Seated SBP Tertile Middle): −10.63 (7.25) mmHg | Mean (SD) Automated Office-Measured Diastolic Blood Pressure at Wk 8 (50 mg QD, Sex Female): 75.67 (12.10) mmHg | Mean (SD) Automated Office-Measured Systolic Blood Pressure at Wk 8 (50 mg QD, Sex Female): 125.67 (11.97) mmHg | Mean (SD) Change from Baseline at Week 8 in Automated Office-Measured Diastolic Blood Pressure (50 mg QD, Sex Female): −9.20 (10.37) mmHg | Mean (SD) Change from Baseline at Week 8 in Automated Office-Measured Systolic Blood Pressure (50 mg QD, Sex Female): −15.97 (18.44) mmHg | Mean (SD) Automated Office-Measured Diastolic Blood Pressure at Wk 8 (50 mg QD, Sex Male): 78.15 (6.52) mmHg | Mean (SD) Change from Baseline at Week 8 in Automated Office-Measured Diastolic Blood Pressure (50 mg QD, Sex Male): −6.73 (7.65) mmHg | Mean (SD) Change from Baseline at Week 8 in Automated Office-Measured Systolic Blood Pressure (50 mg QD, Sex Male): −9.96 (15.67) mmHg | Mean (SD) Automated Office-Measured Systolic Blood Pressure at Wk 8 [1]: 127.25 (17.59) mmHg | Mean (SD) Change from Baseline at Week 8 in Automated Office-Measured Systolic Blood Pressure [1]: −29.25 (14.31) mmHg | Mean (SD) Automated Office-Measured Systolic Blood Pressure at Wk 8 [2]: 130.25 (12.04) mmHg | Mean (SD) Change from Baseline at Week 8 in Automated Office-Measured Systolic Blood Pressure [2]: −2.58 (12.54) mmHg | Mean (SD) Automated Office-Measured Systolic Blood Pressure at Wk 8 [3]: 127.63 (13.35) mmHg | Mean (SD) Change from Baseline at Week 8 in Automated Office-Measured Systolic Blood Pressure [3]: −13.00 (14.05) mmHg | Automated Office-Measured Diastolic Blood Pressure, Week 8, Mean (SD) [4]: 78.00 (6.42) mmHg | Mean (SD) Automated Office-Measured Systolic Blood Pressure at Wk 8 [4]: 130.00 (13.65) mmHg | Mean (SD) Change from Baseline at Week 8 in Automated Office-Measured Diastolic Blood Pressure [4]: −4.71 (7.77) mmHg | Mean (SD) Change from Baseline at Week 8 in Automated Office-Measured Systolic Blood Pressure [4]: −7.67 (15.11) mmHg | Automated Office-Measured Diastolic Blood Pressure, Week 8, Mean (SD) [5]: 75.94 (11.89) mmHg | Mean (SD) Automated Office-Measured Systolic Blood Pressure at Wk 8 [5]: 127.63 (14.08) mmHg | Mean (SD) Change from Baseline at Week 8 in Automated Office-Measured Diastolic Blood Pressure [5]: −10.56 (9.49) mmHg | Mean (SD) Change from Baseline at Week 8 in Automated Office-Measured Systolic Blood Pressure [5]: −17.31 (17.91) mmHg | Mean (SD) Automated Office-Measured Systolic Blood Pressure at Wk 8 (100 mg QD, ACEi/ARB No): 116.80 (7.19) mmHg | Mean (SD) Change from Baseline at Week 8 in Automated Office-Measured Systolic Blood Pressure (100 mg QD, ACEi/ARB No): −23.70 (8.89) mmHg | Mean (SD) Automated Office-Measured Systolic Blood Pressure at Wk 8 (100 mg QD, ACEi/ARB Yes): 134.90 (13.12) mmHg | Mean (SD) Change from Baseline at Week 8 in Automated Office-Measured Systolic Blood Pressure (100 mg QD, ACEi/ARB Yes): −11.68 (13.23) mmHg | Mean (SD) Automated Office-Measured Diastolic Blood Pressure at Wk 8 (100 mg QD, ACEi/ARBs No): 71.40 (10.62) mmHg | Mean (SD) Change from Baseline at Week 8 in Automated Office-Measured Diastolic Blood Pressure (100 mg QD, ACEi/ARBs No): −9.00 (6.21) mmHg | Mean (SD) Automated Office-Measured Diastolic Blood Pressure at Wk 8 (100 mg QD, ACEi/ARBs Yes): 73.40 (9.37) mmHg | Mean (SD) Change from Baseline at Week 8 in Automated Office-Measured Diastolic Blood Pressure (100 mg QD, ACEi/ARBs Yes): −4.58 (8.10) mmHg | Mean (SD) Automated Office-Measured Diastolic Blood Pressure at Wk 8 (100 mg QD, AHTs 2): 74.09 (4.66) mmHg | Mean (SD) Automated Office-Measured Systolic Blood Pressure at Wk 8 (100 mg QD, AHTs 2): 124.82 (13.25) mmHg | Mean (SD) Change from Baseline at Week 8 in Automated Office-Measured Diastolic Blood Pressure (100 mg QD, AHTs 2): −8.09 (8.81) mmHg | Mean (SD) Change from Baseline at Week 8 in Automated Office-Measured Systolic Blood Pressure (100 mg QD, AHTs 2): −17.95 (15.83) mmHg | Mean (SD) Automated Office-Measured Diastolic Blood Pressure at Wk 8 (100 mg QD, AHTs ≥3): 72.14 (12.08) mmHg | Mean (SD) Automated Office-Measured Systolic Blood Pressure at Wk 8 (100 mg QD, AHTs ≥3): 136.36 (13.05) mmHg | Mean (SD) Change from Baseline at Week 8 in Automated Office-Measured Diastolic Blood Pressure (100 mg QD, AHTs ≥3): −3.39 (6.60) mmHg | Mean (SD) Change from Baseline at Week 8 in Automated Office-Measured Systolic Blood Pressure (100 mg QD, AHTs ≥3): −11.04 (10.45) mmHg | Mean (SD) Automated Office-Measured Diastolic Blood Pressure at Wk 8 (100 mg QD, Age 65-79 yr): 72.80 (7.89) mmHg | Mean (SD) Automated Office-Measured Systolic Blood Pressure at Wk 8 (100 mg QD, Age 65-79 yr): 133.73 (12.53) mmHg | Mean (SD) Change from Baseline at Week 8 in Automated Office-Measured Diastolic Blood Pressure (100 mg QD, Age 65-79 yr): −4.37 (7.01) mmHg | Mean (SD) Change from Baseline at Week 8 in Automated Office-Measured Systolic Blood Pressure (100 mg QD, Age 65-79 yr): −9.53 (11.49) mmHg | Mean (SD) Automated Office-Measured Diastolic Blood Pressure at Wk 8 (100 mg QD, Age <65 yr): 78.33 (9.69) mmHg | Mean (SD) Automated Office-Measured Systolic Blood Pressure at Wk 8 (100 mg QD, Age <65 yr): 129.33 (20.63) mmHg | Mean (SD) Change from Baseline at Week 8 in Automated Office-Measured Diastolic Blood Pressure (100 mg QD, Age <65 yr): −8.67 (10.16) mmHg | Mean (SD) Change from Baseline at Week 8 in Automated Office-Measured Systolic Blood Pressure (100 mg QD, Age <65 yr): −22.75 (14.75) mmHg
